Assay results: US9012439B2, “Use of electrophilic compounds for inducing platelet production or maintaining platelet function” (University of Rochester, priority 2007, dated 2015)

What was measured:
[1] = test system: Meg-01 cells; assay: Reactive oxygen species production in Meg-01 cells (carboxy-H2DCFDA, MitoSOX Red); format: cell-based, human; conditions: for percentage of Meg-01 cells that produce mitochondrial superoxide (MitoSOX Red): 10 μM
Method: Ten μM carboxy-H2DCFDA was added to cells for 20 min at RT. The cells were washed and immediately analyzed by flow cytometry. Five μM of MitoSOX Red dye in HBSS containing Mg^2+ and Ca^2+ was added to the cells for 15 min at 37° C. The cells were washed in HBSS and analyzed by flow cytometry.

[2] = test system: primary human megakaryocytes; assay: Platelet production from human cord blood CD34+-derived megakaryocytes; format: cell-based; conditions: 10 μM, 24 h
Method: Human CD34+ cord blood cells were obtained from the National Disease Research Interchange (NDRI, Philadelphia, Pa.). Cells were plated at 2.5×10^5 cells per well in a 12-well plate and cultured in serum-free medium as previously described (Zeuner et al., “Chemotherapy-induced Thrombocytopenia Derives from the Selective Death of Megakaryocyte Progenitors and Can Be Rescued by Stem Cell Factor,” Cancer Res 67:4767-4773 (2007), which is hereby incorporated by reference in its entirety) and supplemented with 100 ng/mL of rhTPO. After 14 days in culture, megakaryocytes were identified by staining with a CD61-FITC antibody and analyzed on a BD Biosciences FACSCalibur flow cytometer. Data were analyzed using FlowJo software (Treestar, Ashland, Oreg.). Cell images were captured using an inverted microscope (Olympus IX81). Platelets were isolated from megakaryocytes by centrifugation at 150 xg for 10 min. Supernatants underwent sequential centrifugation (500 xg for 10 min and 1000×g for 10 min). The remaining platelet pellet was fixed then permeabilized with a CD61 or CD41 antibody. 7-AAD (BD Pharmingen) was added for 10 min before analyzing the cells by flow cytometry. Platelets were identified using three well-described parameters (Patel et al., “The Biogenesis of Platelets from Megakaryocyte Proplatelets,” J Clin Invest 115:3348-3354 (2005); Breton-Gorius et al., “Expression of Platelet Proteins During the In Vitro and In Vivo Differentiation of Megakaryocytes and Morphological Aspects of Their Maturation,” Semin Hematol 23:43-67 (1986); Ogura et al., “Establishment of a Novel Human Megakaryoblastic Leukemia Cell Line, MEG-01, With Positive Philadelphia Chromosome,” Blood 66:1384-1392 (1985) and Franks et al., “A Fluorescence Microscopy Method for Quantifying Levels of Prostaglandin Endoperoxide H Synthase-1 and CD-41 in MEG-01 Cells,” Biol Proced Online 3:54-63 (2001), each of which is hereby incorporated by reference in its entirety), size (using normal human platelets as a control), presence of CD61 or CD41 and lack of DNA as determined by the absence of 7-AAD staining Ten thousand platelet events were collected and platelets were quantified by rate (platelet events/second) (Chung et al., “Platelet Activation in Acute, Decompensated Congestive Heart Failure,” Thromb Res 120:709-713 (2007), which is hereby incorporated by reference in its entirety.

[3] = test system: C57BL/6 mice; assay: Irradiation-induced thrombocytopenia (5 Gy total body irradiation); format: in vivo, mouse (C57BL/6)
Method: Seven or 8-week-old male C57BL/6 mice (Jackson Laboratories) were either exposed to 5 Gy cesium (Cs^137) total body irradiation (TBI) using a Model 8114 6000 Curie Shepherd Cs^137 irradiator (approximately 3200 Curie sealed Cs^137 source) with a dose rate of […] or left unexposed. Mice (n=4) received intravenous injections of vehicle (8% DMSO) or 15d-PGJ2 (1 mg/kg) or CDDO-Me (250 μg/kg) for 4 consecutive days from day 1 (days 1, 2, 3 and 4 post-irradiation). Blood was obtained from the aorta or the orbital sinus. Platelets were counted prior to radiation exposure and after radiation exposure on day 10, day 22, and day 31 in Example 7, or days 4, 10, 16, and 21 in Example 9 using the Heska® CBC-Diff™ Veterinary Analyzer (Fort Collins, Colo.). Data are expressed as average platelet counts from two separate experiments. For the unirradiated mice, platelets were counted on day 4, day 10, and day 15 in Example 7 or on the same days in Example 9.

[4] = test system: Dami cells; assay: Platelet production from Dami cells (flow cytometry); format: cell-based; conditions: 10 μM, 24 h
Method: Meg-01 and M07e cells were purchased from the American Type Culture Collection (Rockville, Md.) and Dami cells were a generous gift from Dr. Patricia J. Simpson-Haidaris (University of Rochester). All cells were cultured in RPMI-1640 tissue culture medium (Invitrogen) supplemented with 5% fetal bovine serum (FBS; Invitrogen), 10 mM HEPES (N-2-hydroxyethylpiperazine-N′-2-ethanesulfonic acid; Sigma), 2 mM L-glutamine (Invitrogen), 4.5 g/L glucose (Invitrogen), and 50 μg/mL gentamicin (Invitrogen). M07e cells were also supplemented with 100 ng/mL of granulocyte monocyte-colony stimulating factor (GM-CSF, R&D Systems). All treatments were performed in normal growth media. Dimethyl sulfoxide (DMSO) was used as a vehicle (control) in the experiments described below.
Platelets were isolated from megakaryocytes by centrifugation at 150 xg for 10 min. Supernatants underwent sequential centrifugation (500 xg for 10 min and 1000×g for 10 min). The remaining platelet pellet was fixed then permeabilized with a CD61 or CD41 antibody. 7-AAD (BD Pharmingen) was added for 10 min before analyzing the cells by flow cytometry. […]

For CCCCCC=CC=C1C(=O)C=C[C@@H]1CC=CCCCC(=O)O [15d-PGJ2, 15-deoxy-Δ^12,14 prostaglandin J2], the “percentage of Meg-01 cells that produce mitochondrial superoxide (MitoSOX Red)” value ([1]; 1 h) was 43%, the “percentage of Meg-01 cells that produce mitochondrial superoxide (MitoSOX Red)” value ([1]; 6 h) was 31% and the “percentage of Meg-01 cells that express ROS (carboxy-H2DCFDA)” value ([1]; 1 h) was 91%. The “percentage of Meg-01 cells that express ROS (carboxy-H2DCFDA)” value ([1]; 6 h) was 97%, the “number of platelets generated from human megakaryocytes” value ([2]; CD61+ cells from cord blood CD34+ cells) was “doubled” and the proplatelet formation ([2]; human megakaryocytes, microscopy) was “induced proplatelet formation”. For the same compound, the “weight versus vehicle-treated mice” value ([3]; 1 mg/kg IV for 4 consecutive days) was “no differences in weight”, the platelet numbers ([3]; 5 Gy, 1 mg/kg IV days 1-4, by day 31) was “approximately 800,000 /μL” and the “platelet recovery compared to vehicle mice” value ([3]; 5 Gy, 1 mg/kg IV days 1-4, day 22 and day 31) was “accelerated platelet recovery”. For the same compound, the platelet production [4] was “increased platelet production”.
